Test results taken from patent EP4692114A1, “CALCITONIN ANALOGUE, AND DERIVATIVE THEREOF AND USE THEREOF” (Hangzhou Sciwind Biosciences Co., Ltd., priority 2023, dated 2024).
*1 amine or outer side, *2 acyl side, *3 side chain or, on linkers, in order; H or OH if unused. Where a SMILES comes first, the peptide text is derived from it. Primed or numbered codes have the meaning given here. The star is where a group is joined. C22 diacid = O=C(O)CCCCCCCCCCCCCCCCCCCCC(=O)*; C20 diacid = O=C(O)CCCCCCCCCCCCCCCCCCC(=O)*; C18 diacid = O=C(O)CCCCCCCCCCCCCCCCC(=O)*; γGlu = O=C(O)[C@H](CCC(=O)[*:2])N[*:1]; Trx′ = not defined here; Inp = O=C(O)C1CCNCC1

T1: human amylin receptor (AMY3) on CHO-K1/Gal5/AMY3 cells (human, UniProt P30988 25-474; O60896 24-148)
T1 sequence (looked up) 1: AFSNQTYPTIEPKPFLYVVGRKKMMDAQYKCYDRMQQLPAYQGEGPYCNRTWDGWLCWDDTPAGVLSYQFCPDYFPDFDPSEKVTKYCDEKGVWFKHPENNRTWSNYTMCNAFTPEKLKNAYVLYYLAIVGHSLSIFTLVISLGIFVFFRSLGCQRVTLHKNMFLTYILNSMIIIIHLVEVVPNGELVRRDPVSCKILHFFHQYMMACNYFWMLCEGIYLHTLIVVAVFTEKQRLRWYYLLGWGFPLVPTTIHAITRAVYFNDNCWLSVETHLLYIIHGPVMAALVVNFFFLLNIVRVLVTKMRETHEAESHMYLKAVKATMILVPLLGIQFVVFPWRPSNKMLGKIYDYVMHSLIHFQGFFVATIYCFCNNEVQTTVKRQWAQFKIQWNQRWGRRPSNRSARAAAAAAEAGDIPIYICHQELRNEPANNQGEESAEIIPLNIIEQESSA
T1 sequence (looked up) 2: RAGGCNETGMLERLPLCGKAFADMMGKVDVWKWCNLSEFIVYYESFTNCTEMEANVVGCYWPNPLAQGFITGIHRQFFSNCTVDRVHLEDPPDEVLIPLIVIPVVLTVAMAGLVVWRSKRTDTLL


Key:
[1] = Heat accelerated stability assay under a neutral condition; format: physicochemical; details: pH about 7.4, 40°C; for Changes in characteristics or properties, 0d / Changes in characteristics or properties, 7d: 1 mg/mL, phosphate; for Concentration change (7d-0d)/%: Day 7 vs Day 0, reversed phase chromatography; for Purity Change% (7d-0d) / Purity Change% (26d-0d): purity from reversed phase chromatography-214 nm; for Purity Change% (7d-0d): Day 7 vs Day 0; for Purity Change% (26d-0d): Day 26 vs Day 0
Description: The lyophilized powder (1 mg/mL) of calcitonin analogues or derivatives prepared in accordance with the method of Example 1 were mixed with sodium dihydrogen phosphate (1.42 mg/mL) and dissolved in ultrapure water in the indicated mass-volume ratios. After adjusting pH to about 7.4 with hydrochloric acid/sodium hydroxide, the solution was filtered into a sterilized vial in a clean bench using a 0.22 µm sterile filter. The vial was then capped and placed into the stability test chamber at 40°C. Detections were made on Days 7 (7d) and 26 (26d), and during the assay, changes in the characteristics and properties of the polypeptides were observed and recorded. The sample was then centrifuged for 3 min at 10000 rpm at 4°C, and the supernatant was transferred to a liquid phase sample vial for detecting the concentration and purity of the polypeptides using liquid phase chromatography described as below, wherein the concentration of the polypeptide = peak area/injection volume/extinction coefficient/60×flow rate, and the purity of the polypeptide = target peak area/total peak area× 100%.
Conditions of the reversed phase chromatography Flow rate: 1.0 ml/min; Autosampler temperature: 15°C; Column temperature: 25°C; Detection wavelengths: 280 nm and 214 nm; Mobile phase A: 100% H2O+0.05% TFA; Mobile phase B: 100% ACN; and Gradient of elution listed in Table 4: Table 4. Listing of the gradient of elution in the liquid phase chromatography
Results were shown below in Tables 5, 6, and 7. A difference of more than 5% in content as compared with the initial value was typically assumed (for example, as prescribed by the Chinese Pharmacopeia (2020 Edition)) to be a significant change. Within a reasonable margin of error, a decrease of less than 1% from the initial value to the detected content is denoted as "no change" below. Table 5. Changes in characteristics or properties in the heat accelerated stability assay

[2] = molecular target: T1, human amylin receptor (AMY3) on …; experiment: cell-based or functional assay

Molecule	Changes in characteristics or properties, 0d [1]	Changes in characteristics or properties, 7d [1]	Concentration change (7d-0d)/% [1]	Purity Change% (7d-0d) [1]	Purity Change% (26d-0d) [1]	EC50/nM, CRE-luciferase in amylin receptor/CRE-luc CHO cells [2]
CC(C)C[C@H](NC(=O)[C@H](CCCNC(=N)N)NC(=O)CNC(=O)[C@H](CC(C)C)NC(=O)[C@@H](NC(=O)[C@H](C)NC(=O)[C@@H](NC(=O)[C@H](CO)NC(=O)[C@H](CC(C)C)NC(=O)[C@H](CCC(N)=O)NC(=O)[C@H](CO)NC(=O)[C@H](C)NC(=O)C1CCN(C(=O)CCCCCCCCCCCCCCCCCCC(=O)O)CC1)[C@@H](C)O)C(C)C)C(=O)N[C@@H](CO)C(=O)N[C@@H](CC(=O)O)C(=O)N[C@@H](CCC(=O)O)C(=O)N[C@@H](CC(C)C)C(=O)N[C@@H](Cc1c[nH]cn1)C(=O)N[C@@H](CCCNC(=N)N)C(=O)N[C@@H](CC(C)C)C(=O)N[C@@H](CCC(N)=O)C(=O)N[C@@H](CC(=O)O)C(=O)N[C@@H](Cc1ccc(O)cc1)C(=O)N1CCC[C@H]1C(=O)N[C@@H](CCCNC(=N)N)C(=O)N[C@H](C(=O)N[C@@H](CC(=O)O)C(=O)N[C@H](C(=O)NCC(=O)N[C@@H](CO)C(=O)NCC(=O)N[C@@H](CO)C(=O)N1CCC[C@H]1C(N)=O)C(C)C)[C@@H](C)O [M47] ({C20 diacid-Inp}-ASQLSTAVLGRLSDELHRLQDYPRTDVGSGSP-NH2)	Clear	Clear	-3.488%	No change (a decrease of less than 1% from the initial value to the detected content is denoted as "no change")	No change (a decrease of less than 1% from the initial value to the detected content is denoted as "no change")	–
CC(C)C[C@H](NC(=O)[C@H](CCCNC(=N)N)NC(=O)CNC(=O)[C@H](CC(C)C)NC(=O)[C@@H](NC(=O)[C@H](C)NC(=O)[C@@H](NC(=O)[C@H](CO)NC(=O)[C@H](CC(C)C)NC(=O)[C@H](CCC(N)=O)NC(=O)[C@H](CO)NC(=O)[C@H](C)NC(=O)C1CCN(C(=O)CCCCCCCCCCCCCCCCC(=O)O)CC1)[C@@H](C)O)C(C)C)C(=O)N[C@@H](CO)C(=O)N[C@@H](CC(=O)O)C(=O)N[C@@H](CCC(=O)O)C(=O)N[C@@H](CC(C)C)C(=O)N[C@@H](Cc1c[nH]cn1)C(=O)N[C@@H](CCCNC(=N)N)C(=O)N[C@@H](CC(C)C)C(=O)N[C@@H](CCC(N)=O)C(=O)N[C@@H](CC(=O)O)C(=O)N[C@@H](Cc1ccc(O)cc1)C(=O)N1CCC[C@H]1C(=O)N[C@@H](CCCNC(=N)N)C(=O)N[C@H](C(=O)N[C@@H](CC(=O)O)C(=O)N[C@H](C(=O)NCC(=O)N[C@@H](CO)C(=O)NCC(=O)N[C@@H](CO)C(=O)N1CCC[C@H]1C(N)=O)C(C)C)[C@@H](C)O [M48] ({C18 diacid-Inp}-ASQLSTAVLGRLSDELHRLQDYPRTDVGSGSP-NH2)	Clear	Clear	-1.678%	-1%	-3.9%	–
{C20 diacid-γGlu}-ASQLSTAVLGRLSQELHRLQDYPRTDVGSESP-NH2 (SMILES CC(C)C[C@H](NC(=O)[C@H](CCCNC(=N)N)NC(=O)CNC(=O)[C@H](CC(C)C)NC(=O)[C@@H](NC(=O)[C@H](C)NC(=O)[C@@H](NC(=O)[C@H](CO)NC(=O)[C@H](CC(C)C)NC(=O)[C@H](CCC(N)=O)NC(=O)[C@H](CO)NC(=O)[C@H](C)NC(=O)CC[C@H](NC(=O)CCCCCCCCCCCCCCCCCCC(=O)O)C(=O)O)[C@@H](C)O)C(C)C)C(=O)N[C@@H](CO)C(=O)N[C@@H](CCC(N)=O)C(=O)N[C@@H](CCC(=O)O)C(=O)N[C@@H](CC(C)C)C(=O)N[C@@H](Cc1c[nH]cn1)C(=O)N[C@@H](CCCNC(=N)N)C(=O)N[C@@H](CC(C)C)C(=O)N[C@@H](CCC(N)=O)C(=O)N[C@@H](CC(=O)O)C(=O)N[C@@H](Cc1ccc(O)cc1)C(=O)N1CCC[C@H]1C(=O)N[C@@H](CCCNC(=N)N)C(=O)N[C@H](C(=O)N[C@@H](CC(=O)O)C(=O)N[C@H](C(=O)NCC(=O)N[C@@H](CO)C(=O)N[C@@H](CCC(=O)O)C(=O)N[C@@H](CO)C(=O)N1CCC[C@H]1C(N)=O)C(C)C)[C@@H](C)O) [calcitonin derivative M21]	–	–	–	–	–	0.017 nM
{C20 diacid-Trx′}-ASQLSTAVLGRLSEELHRLQDYPRTDVGSGSP-NH2 (reading uncertain) [calcitonin derivative M55]	–	–	–	–	–	0.017 nM
{C22 diacid-γGlu}-ASQLSTAVLGRLSDELHRLQDYPRTDVGSGSP-NH2 (SMILES CC(C)C[C@H](NC(=O)[C@H](CCCNC(=N)N)NC(=O)CNC(=O)[C@H](CC(C)C)NC(=O)[C@@H](NC(=O)[C@H](C)NC(=O)[C@@H](NC(=O)[C@H](CO)NC(=O)[C@H](CC(C)C)NC(=O)[C@H](CCC(N)=O)NC(=O)[C@H](CO)NC(=O)[C@H](C)NC(=O)CC[C@H](NC(=O)CCCCCCCCCCCCCCCCCCCCC(=O)O)C(=O)O)[C@@H](C)O)C(C)C)C(=O)N[C@@H](CO)C(=O)N[C@@H](CC(=O)O)C(=O)N[C@@H](CCC(=O)O)C(=O)N[C@@H](CC(C)C)C(=O)N[C@@H](Cc1c[nH]cn1)C(=O)N[C@@H](CCCNC(=N)N)C(=O)N[C@@H](CC(C)C)C(=O)N[C@@H](CCC(N)=O)C(=O)N[C@@H](CC(=O)O)C(=O)N[C@@H](Cc1ccc(O)cc1)C(=O)N1CCC[C@H]1C(=O)N[C@@H](CCCNC(=N)N)C(=O)N[C@H](C(=O)N[C@@H](CC(=O)O)C(=O)N[C@H](C(=O)NCC(=O)N[C@@H](CO)C(=O)NCC(=O)N[C@@H](CO)C(=O)N1CCC[C@H]1C(N)=O)C(C)C)[C@@H](C)O) [calcitonin derivative M38]	–	–	–	–	–	0.022 nM
{C20 diacid-γGlu}-ASQLSTAVLGRLSQELHRLQDYPRTDVGSGSP-NH2 (SMILES CC(C)C[C@H](NC(=O)[C@H](CCCNC(=N)N)NC(=O)CNC(=O)[C@H](CC(C)C)NC(=O)[C@@H](NC(=O)[C@H](C)NC(=O)[C@@H](NC(=O)[C@H](CO)NC(=O)[C@H](CC(C)C)NC(=O)[C@H](CCC(N)=O)NC(=O)[C@H](CO)NC(=O)[C@H](C)NC(=O)CC[C@H](NC(=O)CCCCCCCCCCCCCCCCCCC(=O)O)C(=O)O)[C@@H](C)O)C(C)C)C(=O)N[C@@H](CO)C(=O)N[C@@H](CCC(N)=O)C(=O)N[C@@H](CCC(=O)O)C(=O)N[C@@H](CC(C)C)C(=O)N[C@@H](Cc1c[nH]cn1)C(=O)N[C@@H](CCCNC(=N)N)C(=O)N[C@@H](CC(C)C)C(=O)N[C@@H](CCC(N)=O)C(=O)N[C@@H](CC(=O)O)C(=O)N[C@@H](Cc1ccc(O)cc1)C(=O)N1CCC[C@H]1C(=O)N[C@@H](CCCNC(=N)N)C(=O)N[C@H](C(=O)N[C@@H](CC(=O)O)C(=O)N[C@H](C(=O)NCC(=O)N[C@@H](CO)C(=O)NCC(=O)N[C@@H](CO)C(=O)N1CCC[C@H]1C(N)=O)C(C)C)[C@@H](C)O) [calcitonin derivative M6]	–	–	–	–	–	0.017 nM
